Data set [1] has as its system hP2Y2. On the set-up: method as in Bano et al., 2021. The following applies: Figure 1, reported antagonist; ref Bano et al., 2021; cited from earlier work.
Data set [2] is described as follows: MTT assay, HeLa. The format is cell-based. The following applies: human, HeLa cells; at 50 µM; triplicate; read-out: HeLa Cell Line (%cytotoxicity ±SEM). Background: Formazan colour is commonly taken as a measure of viable cells.
Data set [3] can be described thus: MTT assay, HEK-293. The format is cell-based. The following applies: human, HEK-293 cells; at 50 µM; triplicate; read-out: HEK-293 Cell Line (%cytotoxicity ±SEM).
The target of data set [4] is T1, h-P2Y2 (Homo sapiens, UniProt P41231).
T1 construct: host or cells: human 1321N1 astrocytoma cells, stably transfected
Nature of the data set: Calcium mobilization assay, h-P2Y2 transfected 1321N1 astrocytoma cells. The following applies: 500 μM ATP; for IC50: Ca2+ mobilization inhibition, transfected 1321N1 cells, read-out: IC50 ± SEM h-P2Y2. The format is cell-based. The protocol: (§1) Dr. Gary A. Weisman provided human-1321N1 astrocytoma cells that had been transfected by the tP2Y1R, hP2Y2R, hP2Y4R, and rP2Y6R and untransfected 1321N1 astrocytoma cells (University of Missouri Mo., Bond Life Science Center). The DMEM Dulbecco’s Modified Eagle -Medium (Gibco) was added in flasks to cultivate the cell line. 10% of the Fetal bovine serum was also added to the media together with 500 μg/mL of Geneticin (G418) and 1% of the Pen/Strep. The cells in T-75 flask were then cultured and incubated in a CO2 incubator which was maintained at (5%) and 37°C temperature until 90% of the cells were confluent. Throughout the experiment, cells were periodically checked for the confluency and strictly watched for the microbial contamination.
(§2) The FLUOstar Galaxy (BMG LABTECH GmbH, Ortenberg, Germany) microplate reader with two injectors was used to measure the Ca^2+ fluorescence of synthetic compounds. For this assay, 1321N1 transfected cells (t-P2Y1, h-P2Y2, h-P2Y4, and r-P2Y6) were cultured in T-75 flask. When cells reached the confluency of 80%–90%, they were washed with PBS and then Trypsin was added. After trypsinization for 3 min, 20,000 cells/well were allowed to seed in a black wall and 96 well clear bottom plate which was coated with Poly-D-Lysine and allowed to incubate for 24 h in 37°C, 5% CO2 incubator. After incubation, 200 μL culture media was changed with 100 μL HBSS containing Fura-2 AM which is calcium chelating dye and allowed the plate to incubate for 45 min in dark at temp of 37°C in incubator which is maintained with carbon dioxide (5% CO2). After incubation for 45 min, synthesized molecules were added to HBSS washed cells in each well of 96 well plate and re-incubated for 30 min at 37°C. In next step, injection of the endogenous ligand such as ADP through the injector was followed by excitation and emission measurements of Fura-2 AM at 380/520 nm and 340/520. Final volume of the assay per well 200 μL. IC50 values were computed for the compounds displaying more than 50% of activity using Prism 5.0 software (Graph Pad., Inc., San Diego. California, United States) by using analysis i.e., nonlinear regression ([Kassack et al., 2002]; [Ullmann et al., 2005]).
Background: A change in cytosolic calcium serves as a functional read-out for many receptors and channels.

In data set [5] the target is T2, t-P2Y1 (Meleagris gallopavo, UniProt P49652).
T2 construct: host or cells: human 1321N1 astrocytoma cells, stably transfected
Nature of the data set: Calcium mobilization assay, t-P2Y1 transfected 1321N1 astrocytoma cells. The following applies: for IC50: Ca2+ mobilization inhibition, transfected 1321N1 cells, read-out: IC50 ± SEM t-P2Y1. The data set is classed as cell-based. The protocol:
as §1, §2

Data set [6] is described as follows: MTT assay, non-transfected 1321N1 astrocytoma cells. The format is cell-based, human. The following applies: human, non-transfected 1321N1 astrocytoma cells; at 50 µM; non-transfected astrocytoma 1321N1 cells; triplicate; read-out: H-1321N1 Cell Line (%cytotoxicity ±SEM). How it is done: (§3) A 96-well plate was used to plate 20,000 human 1321N1 astrocytoma cells and allowed for incubation for 24 h at temp of 37°C in CO2 (5%) incubator. Next to this, the prepared culture media was changed to media which was free from FBS, the test compounds were added and the incubation process was repeated. After incubation of 24 h, the serum free media from the wells was discarded, and 100 μL of the reagent i.e., MTT reagent was pipetted. Plate was then additionally incubated at 37°C for 4 h. Utilizing a microplate reader, absorbance was determined at 570 nm and 630 nm for calculation of cell viability (FLUOstarOmega Microplate Reader-BMG LABTECH GmbH, Ortenberg, Germany) ([Sauer et al., 2009]).

Data set [7] concerns the target P2Y1. The following applies: Figure 1, reported antagonist; cited from earlier work.
In data set [8] the test system is HeLa Cell Line. In words: MTT assay, HeLa. The format is cell-based. The following applies: at 50 µM; triplicate.
Data set [9] addresses T3, r-P2Y6 (Rattus norvegicus, UniProt Q63371).
T3 construct: host or cells: human 1321N1 astrocytoma cells, stably transfected
Nature of the data set: Calcium mobilization assay, r-P2Y6 transfected 1321N1 astrocytoma cells. The data set is classed as cell-based. The protocol: as §1, §2

The subject of data set [10] is HEK-293 Cell Line. Nature of the data set: MTT assay, HEK-293. The data set is classed as cell-based. The following applies: at 50 µM; triplicate.
For data set [11], the target named is T4, h-P2Y4 (Homo sapiens, UniProt P51582).
T4 construct: host or cells: human 1321N1 astrocytoma cells, stably transfected
In words: Calcium mobilization assay, h-P2Y4 transfected 1321N1 astrocytoma cells. The data set is classed as cell-based. The following applies: 500 μM UTP. The protocol:
as §1, §2

Data set [12] has as its system H-1321N1 Cell Line. In words: MTT assay, non-transfected 1321N1 astrocytoma cells. The data set is classed as cell-based, human. The following applies: at 50 µM; non-transfected astrocytoma 1321N1 cells; triplicate. How it is done:
as §3

Data set [13] has as its system P2Y12. On the set-up: method as in Oestreich, 2010; Boldron et al., 2014. The following applies: Figure 1, reported antagonists; ref Oestreich, 2010; Boldron et al., 2014; cited from earlier work.
The target of data set [14] is hP2Y1. On the set-up: method as in Peng et al., 2018. The following applies: Figure 1, reported antagonist; ref Peng et al., 2018; cited from earlier work.
For data set [15] the following is noted: was reported; cited from earlier work.
Data set [16] is described as follows: Aqueous solubility assay (UV absorption). The format is physicochemical. How it is done:
In eppendorf tubes, over-saturated chemical solutions were prepared by mixing synthesized compound with PBS buffer (pH 7.4). To confirm compound saturation, suspensions were rapidly vortexed for 1 min, sonicated at ambient temperature for 10 min, and then incubated with overnight shaking. After that, compound suspensions were centrifuged at 15,000 RPM for 20 min. Supernatants were cautiously taken out of the tubes and filtered once more using 0.22 µm syringe filters. By using UV-vis absorption spectrometry with standard curves and an already-determined absorption extinction coefficient in the same buffer, the concentrations of the drug in the supernatants were identified.

The subject of data set [17] is P2X3. On the set-up: method as in Bae et al., 2022. The following applies: Figure 1, reported antagonist; ref Bae et al., 2022; cited from earlier work.

A word on the IC50: it is the concentration needed to halve the response being measured. As usually defined, the Ki is a dissociation constant, usually derived from enzyme kinetics or from competition with a known ligand. By solubility is commonly meant how much of the substance goes into solution per volume. One may read the melting point as the temperature of the solid-liquid transition. The inhibition is the change of the read-out against control, counted positive when it falls.

Converted amounts (≈) assume the structure as drawn. Counter-ions that a name gives are not always drawn. Like-named read-outs stand apart in the source and are kept apart here.

T1 sequence (P41231 whole entry): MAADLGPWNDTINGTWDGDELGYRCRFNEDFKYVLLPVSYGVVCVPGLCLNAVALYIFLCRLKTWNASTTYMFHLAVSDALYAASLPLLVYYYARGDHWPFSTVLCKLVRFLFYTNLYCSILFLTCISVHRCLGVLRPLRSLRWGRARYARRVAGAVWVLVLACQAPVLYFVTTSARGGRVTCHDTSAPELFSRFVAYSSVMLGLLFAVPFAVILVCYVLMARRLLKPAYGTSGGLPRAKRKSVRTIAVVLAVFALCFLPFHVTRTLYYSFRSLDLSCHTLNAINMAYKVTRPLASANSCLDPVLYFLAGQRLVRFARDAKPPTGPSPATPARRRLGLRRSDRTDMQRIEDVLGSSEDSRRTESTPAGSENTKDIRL
T3 sequence (Q63371 whole entry): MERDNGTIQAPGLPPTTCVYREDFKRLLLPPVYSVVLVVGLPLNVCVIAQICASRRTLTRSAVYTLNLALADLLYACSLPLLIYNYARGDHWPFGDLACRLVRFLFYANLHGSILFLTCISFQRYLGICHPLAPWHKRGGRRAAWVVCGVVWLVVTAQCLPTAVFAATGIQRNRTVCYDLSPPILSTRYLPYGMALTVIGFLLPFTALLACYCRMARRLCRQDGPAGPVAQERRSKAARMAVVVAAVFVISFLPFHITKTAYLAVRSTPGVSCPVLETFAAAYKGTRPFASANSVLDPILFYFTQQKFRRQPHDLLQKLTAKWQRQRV
T2 sequence (P49652 whole entry): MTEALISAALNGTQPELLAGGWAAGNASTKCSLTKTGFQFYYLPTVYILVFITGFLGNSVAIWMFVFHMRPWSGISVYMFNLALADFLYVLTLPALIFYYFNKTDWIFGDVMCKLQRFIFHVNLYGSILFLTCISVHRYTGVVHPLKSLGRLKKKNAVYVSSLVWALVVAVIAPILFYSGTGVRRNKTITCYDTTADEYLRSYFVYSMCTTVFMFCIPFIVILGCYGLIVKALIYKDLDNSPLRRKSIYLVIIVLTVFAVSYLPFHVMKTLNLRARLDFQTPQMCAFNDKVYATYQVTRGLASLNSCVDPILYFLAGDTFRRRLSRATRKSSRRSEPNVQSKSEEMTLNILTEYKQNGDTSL
T4 sequence (P51582 whole entry): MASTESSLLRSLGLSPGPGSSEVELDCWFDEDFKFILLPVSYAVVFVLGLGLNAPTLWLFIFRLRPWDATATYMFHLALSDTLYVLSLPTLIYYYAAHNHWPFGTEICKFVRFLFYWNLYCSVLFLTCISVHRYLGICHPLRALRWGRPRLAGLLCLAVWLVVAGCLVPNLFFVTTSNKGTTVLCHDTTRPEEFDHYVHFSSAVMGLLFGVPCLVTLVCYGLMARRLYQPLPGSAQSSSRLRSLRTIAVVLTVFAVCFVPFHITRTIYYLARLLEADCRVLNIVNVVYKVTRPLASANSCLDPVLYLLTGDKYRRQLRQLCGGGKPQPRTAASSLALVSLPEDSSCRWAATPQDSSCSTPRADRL

Regarding `Cc1ccc(C(=O)Nc2ccc(S(=O)(=O)O)c3cc(S(=O)(=O)O)cc(S(=O)(=O)O)c23)cc1NC(=O)c1cccc(NC(=O)Nc2cccc(C(=O)Nc3cc(C(=O)Nc4ccc(S(=O)(=O)O)c5cc(S(=O)(=O)O)cc(S(=O)(=O)O)c45)ccc3C)c2)c1` [Suramin, reference compound], the IC50 in [1] was 48000 nM; in [4], 3310 ± 80 nM; in data set [5] (100 μM ADP), 150 ± 10 nM. Besides, the values for the cytotoxicity at 24 h, 50 µM in data set [2], in [3] and in [6] were 37.5 ± 0.2%, 11.1 ± 0.2% and 12.3 ± 0.2%, respectively.

As for `CNc1nc(I)nc2c1ncn2C1CC(OP(=O)(O)O)C2(COP(=O)(O)O)CC12` (centres unmarked) [MRS2500], in data set [7], the Ki is 0.78 nM.

As to “2-Amino-5-nitro-N-((4-nitrophenyl)sulfonyl)-1H-benzo [d]imidazole-1-carbox amide [1d]”, the “HeLa Cell Line (%cytotoxicity ±SEM)” value in [8] is 28.3 ± 0.4%. Further, the “r-P2Y6 % Inhibition” value in data set [9] (Supplementary Table 2) is given as 39%. The “% Inhibition r-P2Y6” value in data set [9] (final conc of 100 μM, 100 μM of UDP) turned out to be 39%. Also, in [10], the “HEK-293 Cell Line (%cytotoxicity ±SEM)” value amounted to 20.3 ± 0.6%. Also, the “% Inhibition h-P2Y4” value in data set [11] (final conc of 100 μM) turned out to be 48%. The “% Inhibition h-P2Y2” value in data set [4] (final conc of 100 μM) stood at 41%. Besides, the “% Inhibition t-P2Y1” value in data set [5] (final conc of 100 μM, 100 μM ADP) was found to be 43%. For the same compound, the “H-1321N1 Cell Line (%cytotoxicity ±SEM)” value in [12] stood at 15.9 ± 0.3%.

Turning to `CCCC(=O)c1cnn(-c2ccc(NC(=O)c3cn(CC(=O)N4CCNCC4)c4ccc(Cl)cc34)nn2)c1C` [SAR 216471 hydrochloride], the IC50 in data set [13] is 17 nM.

Consider `CC(C)(C)c1ccccc1Oc1ncccc1NC(=O)Nc1ccc(OC(F)(F)F)cc1` [BPTU, 1-(2-(2-tert-butyl-phenoxy)pyridin-3-yl)-3–4-(trifluoromethoxy) phenylurea], for which, in data set [14], the Ki was 6 nM. The solubility in water entry in data set [15] is on record as “less than 0.1 mg/mL”.

As to `Nc1nc2cc(Cl)ccc2n1C(=O)NS(=O)(=O)c1cc(Cl)cc(Cl)c1O` [1h, 2-Amino-5-chloro-N-((3,5-dichloro-2-hydroxyphenyl)sulfonyl)-1H-benzo [d]imidazole-1-carboxamide], the melting point is 124 to 126 °C. For the same compound, the “solubility” value in [16] (Figure 7, UV absorption at 384 nm) came to 287 µg/mL (≈ 659 µM). Further, the solubility in [16] (aqueous buffer, thermodynamic from solid, PBS buffer (pH 7.4), UV absorption spectroscopy, read-out: aqueous solubility) amounted to 287 µg/mL (≈ 659 µM). Moreover, the cytotoxicity at 24 h, 50 µM in data set [2] came to 22.3 ± 0.8%. In addition, the “activity against P2Y6 in words” value in data set [9] was “inactive”. In addition, the inhibition at 100 µM in data set [9] (1321-N1, final conc of 100 μM, 100 μM of UDP) stood at 34%. Further, the cytotoxicity at 24 h, 50 µM in data set [3] is 27.4 ± 1.2%. In addition, the IC50 in data set [11] (Ca2+ mobilization inhibition, transfected 1321N1 cells, read-out: IC50 ± SEM h-P2Y4) came out at 910 ± 40 nM. Besides, in [4], the IC50 amounted to 4130 ± 1020 nM. Also, the IC50 in data set [5] (100 μM ADP) was 190 ± 40 nM. For the same compound, in [5] (P2Y2 versus P2Y1), the “inhibition of P2Y2 less as compared to P2Y1” value was 20 fold. In [6], the cytotoxicity at 24 h, 50 µM amounted to 32.8 ± 0.7%.

As to `CNc1cc2[nH]c(=O)n(-c3ccc(NC(=O)NS(=O)(=O)c4ccc(Cl)s4)cc3)c(=O)c2cc1F` [Elinogrel], the IC50 in [13] was 20 nM.

As to `Cc1nc2c([nH]1)C(=O)C(Cl)=C(Nc1ccc(F)c(F)c1)C2=O` [KCB77033], in data set [17], the IC50 was 1030 nM.

(Values after article PMC10250618, “Synthesis, structure-activity relationships and biological evaluation of benzimidazole derived sulfonylurea analogues as a new class of antagonists of P2Y1 receptor” (Frontiers in Pharmacology, 2023).)
